Assay results reported in patent US6444617B1, “Fused-heterocycle dicarboxylic acid diamide derivatives or salts thereof, herbicide and usage thereof” (Nihon Nohyaku Co., Ltd., priority 1998, dated 2002).

How the values were obtained:
Assay type in all cases: in vivo
[1] = tested on: barnyard grass (Echinochloa crus-galli Beauv.), Ec; assay: Test Example 3: herbicidal effect on upland weeds before emergence; conditions: dosage 5 kg/ha
Procedure, shortened: (§1)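 Steps: sow upland weed seeds; spray liquid formulation of active ingredient at prescribed concentration prior to emergence; after 14 days, calculate weed-killing rate; judge herbicidal effect.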

[2] = tested on: cleavers (Galium aparine L.), Ga; assay: as above; conditions: dosage 5 kg/ha
Procedure, shortened: as §1

[3] = tested on: cocklebur (Xanthium strumarium L.), Xs; assay: as above; conditions: dosage 5 kg/ha
Procedure, shortened: as §1

[4] = tested on: velvetleaf (Abutilon theophtasti L.), At; assay: as above; conditions: dosage 5 kg/ha
Procedure, shortened: as §1

[5] = tested on: bird's eye speedwell (Veronica persica Poir.), Vp; assay: as above; conditions: dosage 5 kg/ha
Procedure, shortened: as §1

[6] = tested on: forxtail grass (Alopecurus aequalis var. amurensis Ohwi), Am; assay: as above; conditions: foxtail grass, dosage 5 kg/ha
Procedure, shortened: as §1

[7] = tested on: barnyard grass (Echinochloa crus-galli Beauv.); assay: Test Example 1: herbicidal effect on paddy field weeds before emergence; conditions: Dosage 5 kg/ha
Procedure, shortened: (§2)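 Soil in pots is brought to paddy state and seeded with barnyard grass and bulrush; before germination, the soil receives a predetermined dosage of test compound in solution. After twenty-one days, control rate relative to untreated pots is calculated and graded.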

[8] = tested on: bulrush (Scirpus juncoides Roxb.); assay: as above; conditions: Dosage 5 kg/ha
Procedure, shortened: as §2

[9] = tested on: barnyard grass (Echinochloa crus-galli Beauv.), Ec; assay: Test Example 4: herbicidal effect on upland weeds after emergence; conditions: dosage 5 kg/ha; sprayed after emergence; judged 14 days after treatment
Procedure, shortened: (§3)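 Upland weeds and crop plants (soybean, wheat) are grown from seed in soil until they reach given leaf stages, then treated by spraying with the compound-containing agent; effects are judged two weeks later.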

[10] = tested on: cleavers (Galium aparine L.), Ga; assay: as above; conditions: dosage 5 kg/ha; sprayed after emergence; judged 14 days after treatment
Procedure, shortened: as §3

[11] = tested on: cocklebur (Xanthium strumarium L.), Xs; assay: as above; conditions: dosage 5 kg/ha; sprayed after emergence; judged 14 days after treatment
Procedure, shortened: as §3

[12] = tested on: velvetleaf (Abutilon theophtasti L.), At; assay: as above; conditions: dosage 5 kg/ha; sprayed after emergence; judged 14 days after treatment
Procedure, shortened: as §3

[13] = tested on: bird's eye speedwell (Veronica persica Poir.), Vp; assay: as above; conditions: dosage 5 kg/ha; sprayed after emergence; judged 14 days after treatment
Procedure, shortened: as §3

[14] = tested on: forxtail grass (Alopecurus aequalis var. amurensis Ohwi), Am; assay: as above; conditions: dosage 5 kg/ha; sprayed after emergence; judged 14 days after treatment
Procedure, shortened: as §3

wheat (Wh) = assay: Test Example 3: phytotoxicity to upland crop plants, treatment before emergence; conditions: dosage 5 kg/ha
Procedure, shortened: (§4)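 Crops treated before emergence with sprayed liquid preparation of compound (prescribed concentration). Day 14: phytotoxicity graded per criterion.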

soybean plant (So) = assay: as above; conditions: dosage 5 kg/ha
Procedure, shortened: as §4

[15] = tested on: monochoria (Monochoria vaginalis Presl); assay: Test Example 2: herbicidal effect on paddy field weeds after emergence; conditions: Dosage 5 kg/ha; one-leaved stage; 21 days after treatment
Procedure, shortened: (§5)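 Weeds in flooded paddy-soil pots were grown to the one-leaved stage, then the soil was treated with the compound solution at a set dosage.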

[16] = tested on: barnyard grass (Echinochloa crus-galli Beauv.); assay: as above; conditions: Dosage 5 kg/ha; one-leaved stage; 21 days after treatment
Procedure, shortened: as §5

[17] = tested on: bulrush (Scirpus juncoides Roxb.); assay: as above; conditions: Dosage 5 kg/ha; one-leaved stage; 21 days after treatment
Procedure, shortened: as §5

soybean plant = assay: Test Example 4: phytotoxicity to upland crop plants, treatment after emergence; conditions: dosage 5 kg/ha, sprayed after emergence, judged 14 days after treatment
Procedure, shortened: as §3

wheat = assay: as above; conditions: dosage 5 kg/ha, sprayed after emergence, judged 14 days after treatment
Procedure, shortened: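 Scores of weed-killing rate, with crop phytotoxicity, come from inspection 14 days after plants in soil vats, grown to specified leaf stages, are sprayed with a formulation holding the compound at a prescribed concentration.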

## Cc1c(Cl)cccc1NC(=O)c1cc2ccoc2nc1C(=O)NC1CCCC1 [compound 796]
[1]
  Herbicidal effect Ec: 5 (Weed-killing rate is 100%.)
[2]
  Herbicidal effect Ga: 5 (Weed-killing rate is 100%.)
[3]
  Herbicidal effect Xs: 4 (Weed-killing rate is 90-99%.)
[4]
  Herbicidal effect At: 5 (Weed-killing rate is 100%.)
[5]
  Herbicidal effect Vp: 5 (Weed-killing rate is 100%.)
[6]
  Herbicidal effect Am: 5 (Weed-killing rate is 100%.)
[7]
  Pre-emergence treatment Barnyard grass (herbicidal effect): 5 (Weed-killing rate is 100%.)
[8]
  Pre-emergence treatment Bulrush (herbicidal effect): 5 (Weed-killing rate is 100%.)
[9]
  Herbicidal effect Ec: 5 (Weed-killing rate is 100%.)
[10]
  Herbicidal effect Ga: 4 (Weed-killing rate is 90-99%.)
[11]
  Herbicidal effect Xs: 4 (Weed-killing rate is 90-99%.)
[12]
  Herbicidal effect At: 5 (Weed-killing rate is 100%.)
[13]
  Herbicidal effect Vp: 5 (Weed-killing rate is 100%.)
[14]
  Herbicidal effect Am: 5 (Weed-killing rate is 100%.)
Wheat (Wh)
  Phytotoxicity Wh: 5 (Crop-killing rate is 100%.)
Soybean plant (So)
  Phytotoxicity So: 4 (Crop-killing rate is 90-99%.)
[15]
  Post-emergence treatment Monochoria (herbicidal effect): 5 (Weed-killing rate is 100%.)
[16]
  Post-emergence treatment Barnyard grass (herbicidal effect): 5 (Weed-killing rate is 100%.)
[17]
  Post-emergence treatment Bulrush (herbicidal effect): 5 (Weed-killing rate is 100%.)
Soybean plant
  Phytotoxicity So: 4 (Crop-killing rate is 90-99%.)
wheat
  Phytotoxicity Wh: 4 (Crop-killing rate is 90-99%.)

## CCCNC(=O)c1nc2scc(Br)c2cc1C(=O)Nc1c(CC)ccc(Cl)c1CC [compound 814]
[1]
  Herbicidal effect Ec: 5 (Weed-killing rate is 100%.)
[2]
  Herbicidal effect Ga: 4 (Weed-killing rate is 90-99%.)
[3]
  Herbicidal effect Xs: 4 (Weed-killing rate is 90-99%.)
[4]
  Herbicidal effect At: 5 (Weed-killing rate is 100%.)
[5]
  Herbicidal effect Vp: 5 (Weed-killing rate is 100%.)
[6]
  Herbicidal effect Am: 5 (Weed-killing rate is 100%.)
[7]
  Pre-emergence treatment Barnyard grass (herbicidal effect): 5 (Weed-killing rate is 100%.)
[8]
  Pre-emergence treatment Bulrush (herbicidal effect): 5 (Weed-killing rate is 100%.)
[9]
  Herbicidal effect Ec: 5 (Weed-killing rate is 100%.)
[10]
  Herbicidal effect Ga: 4 (Weed-killing rate is 90-99%.)
[11]
  Herbicidal effect Xs: 4 (Weed-killing rate is 90-99%.)
[12]
  Herbicidal effect At: 5 (Weed-killing rate is 100%.)
[13]
  Herbicidal effect Vp: 5 (Weed-killing rate is 100%.)
[14]
  Herbicidal effect Am: 5 (Weed-killing rate is 100%.)
Wheat (Wh)
  Phytotoxicity Wh: 4 (Crop-killing rate is 90-99%.)
Soybean plant (So)
  Phytotoxicity So: 3 (Crop-killing rate is 70-89%.)
[15]
  Post-emergence treatment Monochoria (herbicidal effect): 5 (Weed-killing rate is 100%.)
[16]
  Post-emergence treatment Barnyard grass (herbicidal effect): 5 (Weed-killing rate is 100%.)
[17]
  Post-emergence treatment Bulrush (herbicidal effect): 5 (Weed-killing rate is 100%.)
Soybean plant
  Phytotoxicity So: 3 (Crop-killing rate is 70-89%.)
wheat
  Phytotoxicity Wh: 4 (Crop-killing rate is 90-99%.)

## CCCNC(=O)c1nc2nn(C)cc2cc1C(=O)Nc1c(CC)ccc(Cl)c1CC [compound 1124]
[1]
  Herbicidal effect Ec: 5 (Weed-killing rate is 100%.)
[2]
  Herbicidal effect Ga: 5 (Weed-killing rate is 100%.)
[3]
  Herbicidal effect Xs: 5 (Weed-killing rate is 100%.)
[4]
  Herbicidal effect At: 5 (Weed-killing rate is 100%.)
[5]
  Herbicidal effect Vp: 5 (Weed-killing rate is 100%.)
[6]
  Herbicidal effect Am: 5 (Weed-killing rate is 100%.)
[7]
  Pre-emergence treatment Barnyard grass (herbicidal effect): 5 (Weed-killing rate is 100%.)
[8]
  Pre-emergence treatment Bulrush (herbicidal effect): 5 (Weed-killing rate is 100%.)
[9]
  Herbicidal effect Ec: 5 (Weed-killing rate is 100%.)
[10]
  Herbicidal effect Ga: 5 (Weed-killing rate is 100%.)
[11]
  Herbicidal effect Xs: 5 (Weed-killing rate is 100%.)
[12]
  Herbicidal effect At: 5 (Weed-killing rate is 100%.)
[13]
  Herbicidal effect Vp: 5 (Weed-killing rate is 100%.)
[14]
  Herbicidal effect Am: 5 (Weed-killing rate is 100%.)
Wheat (Wh)
  Phytotoxicity Wh: 5 (Crop-killing rate is 100%.)
Soybean plant (So)
  Phytotoxicity So: 5 (Crop-killing rate is 100%.)
[15]
  Post-emergence treatment Monochoria (herbicidal effect): 5 (Weed-killing rate is 100%.)
[16]
  Post-emergence treatment Barnyard grass (herbicidal effect): 5 (Weed-killing rate is 100%.)
[17]
  Post-emergence treatment Bulrush (herbicidal effect): 5 (Weed-killing rate is 100%.)
Soybean plant
  Phytotoxicity So: 5 (Crop-killing rate is 100%.)
wheat
  Phytotoxicity Wh: 5 (Crop-killing rate is 100%.)

## CCCNC(=O)c1nc2ccccc2nc1C(=O)Nc1cccc(Cl)c1C [compound 1318]
[1]
  Herbicidal effect Ec: 5 (Weed-killing rate is 100%.)
[2]
  Herbicidal effect Ga: 4 (Weed-killing rate is 90-99%.)
[3]
  Herbicidal effect Xs: 4 (Weed-killing rate is 90-99%.)
[4]
  Herbicidal effect At: 5 (Weed-killing rate is 100%.)
[5]
  Herbicidal effect Vp: 5 (Weed-killing rate is 100%.)
[6]
  Herbicidal effect Am: 5 (Weed-killing rate is 100%.)
[7]
  Pre-emergence treatment Barnyard grass (herbicidal effect): 5 (Weed-killing rate is 100%.)
[8]
  Pre-emergence treatment Bulrush (herbicidal effect): 4 (Weed-killing rate is 90-99%.)
[9]
  Herbicidal effect Ec: 5 (Weed-killing rate is 100%.)
[10]
  Herbicidal effect Ga: 5 (Weed-killing rate is 100%.)
[11]
  Herbicidal effect Xs: 4 (Weed-killing rate is 90-99%.)
[12]
  Herbicidal effect At: 5 (Weed-killing rate is 100%.)
[13]
  Herbicidal effect Vp: 5 (Weed-killing rate is 100%.)
[14]
  Herbicidal effect Am: 5 (Weed-killing rate is 100%.)
Wheat (Wh)
  Phytotoxicity Wh: 5 (Crop-killing rate is 100%.)
Soybean plant (So)
  Phytotoxicity So: 3 (Crop-killing rate is 70-89%.)
[15]
  Post-emergence treatment Monochoria (herbicidal effect): 5 (Weed-killing rate is 100%.)
[16]
  Post-emergence treatment Barnyard grass (herbicidal effect): 4 (Weed-killing rate is 90-99%.)
[17]
  Post-emergence treatment Bulrush (herbicidal effect): 4 (Weed-killing rate is 90-99%.)
Soybean plant
  Phytotoxicity So: 3 (Crop-killing rate is 70-89%.)
wheat
  Phytotoxicity Wh: 4 (Crop-killing rate is 90-99%.)
